Source: EP4610269A1, “UROKINASE PLASMINOGEN ACTIVATOR SURFACE RECEPTOR (UPAR) LIGANDS FOR DIAGNOSTIC OR THERAPEUTIC USE” (3B Pharmaceuticals GmbH, priority 2024, dated 2025)
Where two headings read alike, the source gives them in different places. Where a SMILES comes first, the peptide text is derived from it. Bridges are numbered along the chain shown (N, C = ends). [ ]: non-standard residue; d: D form. The star is where a group is joined. GdDOTA = Gd(III) DOTA conjugate, O=C([O-])CN1CCN(CC(=O)[O-])CCN(CC(=O)*)CCN(CC(=O)[O-])CC1.[Gd+3]; DOTA = O=C(O)CN1CCN(CC(=O)O)CCN(CC(=O)*)CCN(CC(=O)O)CC1; Phe(4-NH2) = Nc1ccc(C[C@H](N)C(=O)O)cc1; Hyp = O=C(O)[C@@H]1C[C@@H](O)CN1; hArg = N=C(N)NCCCC[C@H](N)C(=O)O; Pentanoyl(4-Me) = CC(C)CCC(=O)*; 2Thi = N[C@@H](Cc1cccs1)C(=O)O; Cit = NC(=O)NCCC[C@H](N)C(=O)O; Aze = O=C(O)[C@@H]1CCN1; Nva = CCC[C@H](N)C(=O)O; Pentanoyl = CCCCC(=O)*

How the values were obtained:
[1] = target: T1, uPAR-expressing HEC-265 human endometrial adenocarcinoma cells (Homo sapiens, UniProt Q03405); experiment: Competitive FACS binding assay; conditions: pIC50 category of FACS binding
T1 construct: Cell surface uPAR-expressing HEC-265 human endometrial adenocarcinoma cells; host or cells: HEC-265
T1 sequence (Q03405 23-335): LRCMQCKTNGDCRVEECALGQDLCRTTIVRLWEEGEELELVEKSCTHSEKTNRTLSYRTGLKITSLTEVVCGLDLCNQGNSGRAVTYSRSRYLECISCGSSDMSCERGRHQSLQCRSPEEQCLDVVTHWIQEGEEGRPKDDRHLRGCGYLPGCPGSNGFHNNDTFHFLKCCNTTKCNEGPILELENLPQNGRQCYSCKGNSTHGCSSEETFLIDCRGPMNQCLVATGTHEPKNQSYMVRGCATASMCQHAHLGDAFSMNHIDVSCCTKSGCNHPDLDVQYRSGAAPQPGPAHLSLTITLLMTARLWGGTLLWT
Method in brief: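 HEC-265 cells incubated 1 h at 4 °C with 10 nM biotinylated uPAR peptide tracer plus increasing test compound, then stained with APC-streptavidin on ice. Median APC fluorescence by flow cytometry; 4PL fit gives pIC50.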

human uPAR (uPAR-Fc) = target: T2, human uPAR (uPAR-Fc) (Homo sapiens, UniProt Q03405); experiment: Surface plasmon resonance (SPR) assay, single cycle kinetics; format: binding; conditions: pKD category for uPAR SPR activity assay, uPAR-Fc on Protein A-Chip, 25°C; for Kd: read-out: pKD CAT (converted)
T2 construct: comprising amino acids Leu23-Arg303 according to UniProt entry Q03405.1; purchased R&D Systems 10378-UK-100
T2 sequence (Q03405 23-303): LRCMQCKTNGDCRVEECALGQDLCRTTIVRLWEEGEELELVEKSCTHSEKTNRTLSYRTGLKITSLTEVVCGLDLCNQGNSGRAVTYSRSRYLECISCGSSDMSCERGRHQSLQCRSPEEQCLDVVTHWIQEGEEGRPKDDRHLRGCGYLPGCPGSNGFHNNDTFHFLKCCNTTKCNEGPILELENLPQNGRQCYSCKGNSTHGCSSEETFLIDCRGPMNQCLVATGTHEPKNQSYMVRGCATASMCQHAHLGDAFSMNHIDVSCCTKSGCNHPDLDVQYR
Method in brief: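 uPAR-Fc (Leu23-Arg303 extracellular domains, human IgG1 Fc) captured on Protein A chip to ~2000 RU; single-cycle kinetics at 25°C in HEPES running buffer pH 7.4 with 0.1% DMSO. KD from double-referenced sensorgrams fitted to 1:1 Langmuir model, reported as pKD.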

| Molecule | IC50 [1] [nM] | Kd (human uPAR (uPAR-Fc); single cycle kinetics) [nM] | pIC50 CAT [1] | pKD CAT (human uPAR (uPAR-Fc); single cycle kinetics) | Kd (human uPAR (uPAR-Fc)) [nM] |
| --- | --- | --- | --- | --- | --- |
| Pent-[Cys-Har-Lys(GdDOTA)-Tyr-Phe-Pro-Hyp-Ile-Nva-Cys]-NH2 (Pentanoyl-C[hArg]K(GdDOTA)YFP[Hyp]I[Nva]C-NH2; disulfide 1-10; not fully specified; also: Gd(III) complexed by DOTA) [UPAR-376] | – | – | A (pIC50 values ≥8.0) | A (pKD values ≥ 8.8) | – |
| CCCCC(=O)N[C@H]1CSSC[C@@H](C(=O)NCC(N)=O)NC(=O)[C@H](CCC)NC(=O)[C@H]([C@@H](C)CC)NC(=O)[C@@H]2C[C@@H](O)CN2C(=O)[C@@H]2CCCN2C(=O)[C@H](Cc2ccccc2)NC(=O)[C@H](Cc2ccc(O)cc2)NC(=O)[C@H](CCC(N)=O)NC(=O)[C@H](CCCNC(N)=O)NC1=O [UPAR-206, Pent-[Cys-Cit-Gln-Tyr-Phe-Pro-Hyp-Ile-Nva-Cys]-Gly-NH2] (Pentanoyl-C[Cit]QYFP[Hyp]I[Nva]CG-NH2; disulfide 1-10) | 12.6 to 31.6 | – | – | – | 1.58 to 10 |
| CCCCC(=O)N[C@H]1CSSC[C@@H](C(N)=O)NC(=O)[C@H](CCC)NC(=O)[C@H]([C@@H](C)CC)NC(=O)[C@@H]2C[C@@H](O)CN2C(=O)[C@@H]2CCCN2C(=O)[C@H](Cc2ccccc2)NC(=O)[C@H](Cc2ccc(N)cc2)NC(=O)[C@H](CCCCNC(=O)CN2CCN(CC(=O)O)CCN(CC(=O)O)CCN(CC(=O)O)CC2)NC(=O)[C@H](CCCNC(N)=O)NC1=O [UPAR-320, Pent-[Cys-Cit-Lys(DOTA)-Aph-Phe-Pro-Hyp-Ile-Nva-Cys]-NH2] (Pentanoyl-C[Cit]K(DOTA)[Phe(4-NH2)]FP[Hyp]I[Nva]C-NH2; disulfide 1-10) | ≤ 10 | – | – | – | < 1.58 |
| CCCCC(=O)N[C@H]1CSSC[C@@H](C(N)=O)NC(=O)[C@H](CCC)NC(=O)[C@H]([C@@H](C)CC)NC(=O)[C@@H]2C[C@@H](O)CN2C(=O)[C@@H]2CCCN2C(=O)[C@H](Cc2ccccc2)NC(=O)[C@H](Cc2ccc(O)cc2)NC(=O)[C@H](CCCCN)NC(=O)[C@H](CCCNC(=N)N)NC1=O [UPAR-448, Pent-[Cys-Arg-Lys-Tyr-Phe-Pro-Hyp-Ile-Nva-Cys]-NHz] (Pentanoyl-CRKYFP[Hyp]I[Nva]C-NH2; disulfide 1-10) | ≤ 10 | < 1.58 | – | – | – |
| CCCCC(=O)N[C@H]1CSSC[C@@H](C(N)=O)NC(=O)[C@H](CCC)NC(=O)[C@H](CCCCN)NC(=O)[C@@H]2C[C@@H](O)CN2C(=O)[C@@H]2CCCN2C(=O)[C@H](Cc2ccccc2)NC(=O)[C@H](Cc2ccc(O)cc2)NC(=O)[C@H](CCC(N)=O)NC(=O)[C@H](CCCNC(=N)N)NC1=O [UPAR-385, Pent-[Cys-Arg-Gln-Tyr-Phe-Pro-Hyp-Lys-Nva-Cys]-NH2] (Pentanoyl-CRQYFP[Hyp]K[Nva]C-NH2; disulfide 1-10) | ≥ 126 | 10 to 100 | – | – | – |

The remaining lines, values ahead:

| IC50 [1] [nM] | Kd (human uPAR (uPAR-Fc); single cycle kinetics) [nM] | pIC50 CAT [1] | pKD CAT (human uPAR (uPAR-Fc); single cycle kinetics) | Kd (human uPAR (uPAR-Fc)) [nM] | Molecule |
| --- | --- | --- | --- | --- | --- |
| ≤ 10 | < 1.58 | – | – | – | CCCCC(=O)N[C@H]1CSSC[C@@H](C(N)=O)NC(=O)[C@H](CCC)NC(=O)[C@H]([C@@H](C)CC)NC(=O)[C@@H]2C[C@@H](O)CN2C(=O)[C@@H]2CCCN2C(=O)[C@H](Cc2cccs2)NC(=O)[C@H](Cc2ccc(O)cc2)NC(=O)[C@H](CCCCNC(=O)CN2CCN(CC(=O)O)CCN(CC(=O)O)CCN(CC(=O)O)CC2)NC(=O)[C@H](CCCNC(N)=O)NC1=O [UPAR-360, Pent-[Cys-Cit-Lys(DOTA)-Tyr-Thi-Pro-Hyp-Ile-Nva-Cys]-NH2] (Pentanoyl-C[Cit]K(DOTA)Y[2Thi]P[Hyp]I[Nva]C-NH2; disulfide 1-10) |
| ≤ 10 | 1.58 to 10 | – | – | – | CC[C@H](C)[C@@H]1NC(=O)[C@@H](C)NC(=O)[C@@H]2CCN2C(=O)[C@H](Cc2ccccc2)NC(=O)[C@H](Cc2ccc(O)cc2)NC(=O)[C@H](CCC(N)=O)NC(=O)[C@H](CCCNC(N)=O)NC(=O)[C@@H](NC(=O)CCC(C)C)CSSC[C@@H](C(N)=O)NC(=O)[C@H](CC(C)C)NC1=O [UPAR-426, iHex-[Cys-Cit-Gln-Tyr-Phe-Aze-ala-Ile-Leu-Cys]-NH2] ({Pentanoyl(4-Me)}-C[Cit]QYF[Aze][dA]ILC-NH2; disulfide 1-10) |
| ≤ 10 | – | – | – | < 1.58 | CC[C@H](C)[C@@H]1NC(=O)[C@@H](C)NC(=O)[C@@H]2CCCN2C(=O)[C@H](Cc2ccccc2)NC(=O)[C@H](Cc2ccc(O)cc2)NC(=O)[C@H](CCC(N)=O)NC(=O)[C@H](C)NC(=O)[C@@H](NC(=O)CCC(C)C)CSSC[C@@H](C(N)=O)NC(=O)[C@H](CC(C)C)NC1=O [UPAR-168, iHex-[Cys-Ala-Gln-Tyr-Phe-Pro-ala-Ile-Leu-Cys]-NH2] ({Pentanoyl(4-Me)}-CAQYFP[dA]ILC-NH2; disulfide 1-10) |
